Assay results published in US8841321B2, “Quinoline derivatives as antibacterial agents” (Janssen Pharmaceutica NV, priority 2005, dated 2014).
≈ marks a conversion by molar mass, not a printed value.

What was measured:
[1] = test system: SPN 6305 (Streptococcus pneumoniae (ATCC6305)); experiment: Microtitre plate assay, IC90 determination; type: cell-based; conditions: for IC90 (μg/ml) SPN 6305: Streptococcus pneumoniae (ATCC6305)
Outline: (§1)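 Growth-inhibition endpoint: resazurin added 3 h after inoculation, plates incubated overnight, fluorescence at 530/590 nm after 24 h at 37 °C. Inocula of roughly 10–60 CFU per well in Mueller-Hinton medium; compounds titrated five-fold. IC90 reported as μg/ml.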

[2] = test system: STA 29213 (Staphylococcus aureus (ATCC29213)); experiment: Microtitre plate assay, IC90 determination; type: cell-based; conditions: for IC90 (μg/ml) STA 29213: Staphylococcus aureus (ATCC29213)
Outline: as §1

[3] = test system: EFA 29212 (Enterococcus faecalis (ATCC29212)); experiment: Microtitre plate assay, IC90 determination; type: cell-based; conditions: for IC90: Enterococcus faecalis, ATCC29212, Enterococcus faecalis (ATCC29212), read-out: IC90 (μg/ml) EFA 29212; for IC90 (μg/ml) EFA 29212: Enterococcus faecalis (ATCC29212)
[4] = test system: PAE 27853 (Pseudomonas aeruginosa (ATCC27853)); experiment: Microtitre plate assay, IC90 determination; type: cell-based; conditions: for IC90: Pseudomonas aeruginosa, ATCC27853, Pseudomonas aeruginosa (ATCC27853), read-out: IC90 (μg/ml) PAE 27853; for IC90 (μg/ml) PAE 27853: Pseudomonas aeruginosa (ATCC27853)
[5] = test system: SPY 8668 (Streptococcus pyogens (ATCC8668)); experiment: Microtitre plate assay, IC90 determination; type: cell-based; conditions: for IC90: Streptococcus, ATCC8668, Streptococcus pyogens (ATCC8668), read-out: IC90 (μg/ml) SPY 8668; for IC90 (μg/ml) SPY 8668: Streptococcus pyogens (ATCC8668)
[6] = test system: STA RMETH (methicilline resistant Staphylococcus aureus (MRSA), a clinical isolate from the University of Antwerp); experiment: Microtitre plate assay, IC90 determination; type: cell-based; conditions: for IC90: Staphylococcus aureus, MRSA, read-out: IC90 (μg/ml) STA RMETH
[7] = test system: BSU 43639 (Bacillus subtilis (ATCC43639)); experiment: Microtitre plate assay, IC90 determination; type: cell-based; conditions: for IC90 (μg/ml) BSU 43639: Bacillus subtilis (ATCC43639); for IC90: Bacillus subtilis, ATCC43639, Bacillus subtilis (ATCC43639), read-out: IC90 (μg/ml) BSU 43639
[8] = test system: LMO 49594 (Listeria monocytogenes (ATCC49594)); experiment: Microtitre plate assay, IC90 determination; type: cell-based; conditions: for IC90 (μg/ml) LMO 49594: Listeria monocytogenes (ATCC49594); for IC90: Listeria monocytogenes, ATCC49594, Listeria monocytogenes (ATCC49594), read-out: IC90 (μg/ml) LMO 49594
[9] = test system: STA 25923 (Staphylococcus aureus (ATCC25923)); experiment: Microtitre plate assay, IC90 determination; type: cell-based; conditions: for IC90 (μg/ml) STA 25923: Staphylococcus aureus (ATCC25923); for IC90: Staphylococcus aureus, ATCC25923, Staphylococcus aureus (ATCC25923), read-out: IC90 (μg/ml) STA 25923

Row | IC90 (μg/ml) SPN 6305 [1] [µg/mL] | IC90 (μg/ml) STA 29213 [2] [µg/mL] | melting point [°C] | IC90 (μg/ml) EFA 29212 [3] [µg/mL] | IC90 (μg/ml) PAE 27853 [4] [µg/mL] | IC90 (μg/ml) SPY 8668 [5] [µg/mL] | IC90 (μg/ml) STA RMETH [6] [µg/mL] | SMILES | also measured
1 | 11.5 (≈ 19.9 µM) | 9.1 (≈ 15.8 µM) | 98 |  |  |  |  | COc1nc2ccc(Br)cc2cc1C(c1ccccc1)C(O)(CCCCN(C)C)c1ccc2c(c1)OCO2 (centres unmarked) [Compound 9] | 
2 |  | 1.8 (≈ 3.16 µM) | 157 |  |  |  |  | COc1nc2ccc(Br)cc2cc1C(c1ccccc1)C(O)(CCCCN(C)C)c1cc(F)cc(F)c1 (centres unmarked) [Compound 11] | IC90 ([1]; Streptococcus pneumoniae, ATCC6305, Streptococcus pneumoniae (ATCC6305), read-out: IC90 (μg/ml) SPN 6305): 9 µg/mL (≈ 15.8 µM); IC90 [3]: 9 µg/mL (≈ 15.8 µM); IC90 [4]: 9 µg/mL (≈ 15.8 µM); IC90 [5]: 9 µg/mL (≈ 15.8 µM); IC90 [6]: 11.4 µg/mL (≈ 20 µM)
3 | 25.4 (≈ 44.6 µM) |  | 166 |  |  |  |  | COc1nc2ccc(Br)cc2cc1C(c1ccccc1)C(O)(CCCCN(C)C)c1cc(F)ccc1F (centres unmarked) [Compound 13] | 
4 | 53.5 (≈ 100 µM) | 53.5 (≈ 100 µM) | 150 |  |  |  |  | COc1nc2ccc(Br)cc2cc1C(c1ccccc1)C(O)(CCCCN(C)C)c1cccnc1 (centres unmarked) [Compound 15] | 
5 | 11.6 (≈ 19.9 µM) | 1.9 (≈ 3.26 µM) |  | 4.1 (≈ 7.03 µM) | 1.9 (≈ 3.26 µM) | 46.4 (≈ 79.5 µM) | 58.4 (≈ 100 µM) | COc1nc2ccc(Br)cc2cc1C(c1ccccc1)C(O)(CCCCN(C)C)c1ccc2ccccc2c1 (centres unmarked) [Compound 23] | IC90 (μg/ml) BSU 43639 [7]: 58.4 µg/mL (≈ 100 µM); IC90 (μg/ml) LMO 49594 [8]: 36.8 µg/mL (≈ 63.1 µM); IC90 (μg/ml) STA 25923 [9]: 58.4 µg/mL (≈ 100 µM)
6 | 1.9 (≈ 3.26 µM) | 1.9 (≈ 3.26 µM) |  | 1.9 (≈ 3.26 µM) | 1.9 (≈ 3.26 µM) | 1.9 (≈ 3.26 µM) | 1.9 (≈ 3.26 µM) | COc1nc2ccc(Br)cc2cc1C(c1ccccc1)C(O)(CCCCN(C)C)c1ccc2ccccc2c1 (centres unmarked) [Compound 24] | IC90 (μg/ml) BSU 43639 [7]: 1.9 µg/mL (≈ 3.26 µM); IC90 (μg/ml) LMO 49594 [8]: 1.9 µg/mL (≈ 3.26 µM); IC90 (μg/ml) STA 25923 [9]: 0.5 µg/mL (≈ 0.857 µM)
7 | 2.3 (≈ 3.94 µM) | 1.9 (≈ 3.26 µM) |  | 4.1 (≈ 7.03 µM) | 1.9 (≈ 3.26 µM) | 9.3 (≈ 15.9 µM) | 58.4 (≈ 100 µM) | COc1nc2ccc(Br)cc2cc1C(c1ccccc1)C(O)(CCCCN(C)C)c1ccc2ccccc2c1 (centres unmarked) [Compound 25] | IC90 (μg/ml) BSU 43639 [7]: 58.4 µg/mL (≈ 100 µM); IC90 (μg/ml) LMO 49594 [8]: 9.3 µg/mL (≈ 15.9 µM); IC90 (μg/ml) STA 25923 [9]: 58.4 µg/mL (≈ 100 µM)
8 | 4.3 (≈ 7.01 µM) | 1.9 (≈ 3.1 µM) | 164 | 1.9 (≈ 3.1 µM) | 1.9 (≈ 3.1 µM) | 1.9 (≈ 3.1 µM) | 10.9 (≈ 17.8 µM) | COc1ccc2cc(C(O)(CCCCN(C)C)C(c3ccccc3)c3cc4c(Br)cccc4nc3OC)ccc2c1 (centres unmarked) [Compound 26] | 
9 | 61.4 (≈ 100 µM) |  |  | 61.4 (≈ 100 µM) | 9.7 (≈ 15.8 µM) | 48.7 (≈ 79.4 µM) | 61.4 (≈ 100 µM) | COc1ccc2cc(C(O)(CCCCN(C)C)C(c3ccccc3)c3cc4c(Br)cccc4nc3OC)ccc2c1 (centres unmarked) [Compound 27] | IC90 ([2]; Staphylococcus aureus, ATCC29213, Staphylococcus aureus (ATCC29213), read-out: IC90 (μg/ml) STA 29213): 1.9 µg/mL (≈ 3.1 µM); IC90 [7]: 48.7 µg/mL (≈ 79.4 µM); IC90 [8]: 61.4 µg/mL (≈ 100 µM); IC90 [9]: 61.4 µg/mL (≈ 100 µM)
10 | 58.4 (≈ 100 µM) | 1.9 (≈ 3.26 µM) | 170 |  |  |  | 9.3 (≈ 15.9 µM) | COc1nc2cccc(Br)c2cc1C(c1ccccc1)C(O)(CCCCN(C)C)c1ccc2ccccc2c1 (centres unmarked) [Compound 28] | 
11 | 21.8 (≈ 35.5 µM) | 9.7 (≈ 15.8 µM) | 160 |  |  |  |  | COc1ccc2cc(C(O)(CCCCN(C)C)C(c3ccccc3)c3cc4ccc(Br)cc4nc3OC)ccc2c1 (centres unmarked) [Compound 30] | 
12 | 9.7 (≈ 15.8 µM) | 1.9 (≈ 3.1 µM) |  |  |  |  |  | COc1ccc2cc(C(O)(CCCCN(C)C)C(c3ccccc3)c3cc4ccc(Br)cc4nc3OC)ccc2c1 (centres unmarked) [Compound 31] | IC90 [7]: 9.7 µg/mL (≈ 15.8 µM); IC90 [3]: 10.9 µg/mL (≈ 17.8 µM); IC90 [8]: 4.3 µg/mL (≈ 7.01 µM); IC90 [4]: 1.9 µg/mL (≈ 3.1 µM); IC90 [5]: 4.3 µg/mL (≈ 7.01 µM); IC90 [9]: 12.2 µg/mL (≈ 19.9 µM); IC90 [6]: 4.3 µg/mL (≈ 7.01 µM)
